Source: ChEMBL document CHEMBL5226352, “Inhibition of AlkB Nucleic Acid Demethylases: Promising New Epigenetic Targets” (J Med Chem, 2021)
pIC50: −log10 of the molar value. One block for each molecule: values may come before it.

Key:
[1] = target: T1, Alpha-ketoglutarate-dependent dioxygenase FTO (Homo sapiens, UniProt Q9C0B1); experiment: Inhibition of N-terminal 31 residues truncated FTO (unknown origin) demethylase activity using m6A containing ssRNA as substrate incubated for 1 hr by LC-MS analysis
T1 sequence (Q9C0B1 whole entry, the tested form may be a part): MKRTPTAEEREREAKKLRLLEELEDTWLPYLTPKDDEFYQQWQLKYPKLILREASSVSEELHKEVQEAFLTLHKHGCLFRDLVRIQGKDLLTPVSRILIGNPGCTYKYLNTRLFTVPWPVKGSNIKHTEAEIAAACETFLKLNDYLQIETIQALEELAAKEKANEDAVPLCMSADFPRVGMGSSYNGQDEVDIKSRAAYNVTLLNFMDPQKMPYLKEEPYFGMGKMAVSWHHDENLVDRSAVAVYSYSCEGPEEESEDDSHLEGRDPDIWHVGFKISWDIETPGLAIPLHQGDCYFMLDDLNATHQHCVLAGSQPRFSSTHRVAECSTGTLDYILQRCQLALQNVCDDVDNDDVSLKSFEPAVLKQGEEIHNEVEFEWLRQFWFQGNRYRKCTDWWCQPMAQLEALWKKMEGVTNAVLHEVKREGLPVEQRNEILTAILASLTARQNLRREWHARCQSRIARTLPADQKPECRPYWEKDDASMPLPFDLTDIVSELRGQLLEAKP

RNA demethylase ALKBH5 [2] = target: T2, RNA demethylase ALKBH5 (Homo sapiens, UniProt Q6P6C2); experiment: Inhibition of human ALKBH5 (66 to 292 residues) demethylase activity using 49 nt methylated ssDNA as substrate incubated for 2 hrs by GelRed staining based restriction endonuclease digestion assay
T2 sequence (Q6P6C2 whole entry, the tested form may be a part): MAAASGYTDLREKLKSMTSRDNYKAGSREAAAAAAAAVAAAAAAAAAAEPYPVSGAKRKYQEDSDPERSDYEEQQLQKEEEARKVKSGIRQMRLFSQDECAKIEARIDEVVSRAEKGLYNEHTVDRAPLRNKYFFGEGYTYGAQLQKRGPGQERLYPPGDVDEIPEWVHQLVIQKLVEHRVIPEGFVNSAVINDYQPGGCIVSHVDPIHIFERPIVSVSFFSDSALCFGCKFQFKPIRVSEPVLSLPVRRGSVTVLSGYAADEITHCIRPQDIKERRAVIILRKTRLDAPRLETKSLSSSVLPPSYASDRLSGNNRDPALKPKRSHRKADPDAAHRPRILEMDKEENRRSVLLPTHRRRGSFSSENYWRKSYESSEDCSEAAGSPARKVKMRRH

[3] = target: T3, DNA oxidative demethylase ALKBH2 (Homo sapiens, UniProt Q6NS38); experiment: Inhibition of human ALKBH2 demethylase activity by restriction endonuclease digestion assay
T3 sequence (Q6NS38 whole entry): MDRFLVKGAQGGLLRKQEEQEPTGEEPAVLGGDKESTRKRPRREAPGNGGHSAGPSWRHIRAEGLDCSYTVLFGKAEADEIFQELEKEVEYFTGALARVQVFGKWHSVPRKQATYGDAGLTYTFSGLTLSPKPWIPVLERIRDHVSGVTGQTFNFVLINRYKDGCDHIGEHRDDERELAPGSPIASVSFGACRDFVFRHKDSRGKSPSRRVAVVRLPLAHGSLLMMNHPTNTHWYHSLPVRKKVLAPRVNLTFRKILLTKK

[4] = target: T1, Alpha-ketoglutarate-dependent dioxygenase FTO; experiment: Inhibition of N-terminal 31 residues truncated His-tagged human FTO demethylase activity expressed in Escherichia coli BL21(DE3) cells
RNA demethylase ALKBH5 [5] = target: T2, RNA demethylase ALKBH5; experiment: Inhibition of N-terminal His-tagged human ALKBH5 (66 to 292 residues)
[6] = target: T4, Alpha-ketoglutarate-dependent dioxygenase alkB homolog 3 (Homo sapiens, UniProt Q96Q83); experiment: Inhibition of human ALKBH3 demethylase activity by restriction endonuclease digestion assay
T4 sequence (Q96Q83 whole entry): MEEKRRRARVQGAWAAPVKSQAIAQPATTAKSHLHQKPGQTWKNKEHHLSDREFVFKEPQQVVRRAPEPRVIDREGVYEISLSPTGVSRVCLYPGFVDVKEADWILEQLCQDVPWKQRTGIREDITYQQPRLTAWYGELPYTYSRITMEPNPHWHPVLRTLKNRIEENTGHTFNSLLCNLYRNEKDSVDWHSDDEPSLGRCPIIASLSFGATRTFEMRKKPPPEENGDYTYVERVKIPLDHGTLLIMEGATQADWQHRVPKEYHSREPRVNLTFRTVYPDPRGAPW

[7] = target: T5, Alpha-ketoglutarate-dependent dioxygenase AlkB (Escherichia coli (strain K12), UniProt P05050); experiment: Inhibition of Escherichia coli AlkB DNA repair activity using 1-methyladenine with GC-1meA-AGGTCCCGTAGTGCG sequence as substrate by FDH coupled assay
T5 sequence (P05050 whole entry): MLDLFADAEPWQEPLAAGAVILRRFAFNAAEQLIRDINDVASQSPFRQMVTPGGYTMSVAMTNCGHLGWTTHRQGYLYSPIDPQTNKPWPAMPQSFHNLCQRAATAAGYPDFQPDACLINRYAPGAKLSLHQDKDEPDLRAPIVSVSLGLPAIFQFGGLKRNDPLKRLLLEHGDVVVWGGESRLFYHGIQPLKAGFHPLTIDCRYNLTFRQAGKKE

RNA demethylase ALKBH5 [8] = target: T2, RNA demethylase ALKBH5; experiment: Inhibition of human ALKBH5 (74 to 294 residues) expressed in Escherichia coli BL21(DE3) V2R-pRARE cells using biotin labeled m6A-ss-RNA with UACACUCGAUCUGG(m6A)CUAAAGCUGCUC sequence as substrate incubated for 1 hr by TopCount scintillation counting method
[9] = target: T4, Alpha-ketoglutarate-dependent dioxygenase alkB homolog 3; experiment: Inhibition of human ALKBH3 by HPLC analysis
[10] = target: T5, Alpha-ketoglutarate-dependent dioxygenase AlkB; experiment: Inhibition of Escherichia coli AlkB by HPLC analysis
[11] = target: T3, DNA oxidative demethylase ALKBH2; experiment: Inhibition of human ALKBH2 by HPLC analysis
[12] = target: T1, Alpha-ketoglutarate-dependent dioxygenase FTO; experiment: Inhibition of human FTO (31 to 505 residues) demethylase activity using 15-mer ssRNA with CUUGUCA(m6A)CAGCAGA sequence as substrate incubated for 0.5 hrs by LC-MS/MS analysis
[13] = target: T6, Alpha-ketoglutarate-dependent dioxygenase alkB homolog 3 (Homo sapiens) (UniProt Q96Q83); experiment: Inhibition of ALKBH3 (unknown origin) at 50 uM relative to control
T6 sequence (whole entry): T4 sequence (Q96Q83 whole entry)

[14] = target: T5, Alpha-ketoglutarate-dependent dioxygenase AlkB; experiment: Inhibition of Escherichia coli AlkB-mediated demethylation using 40-mer single N3-meC containing ssDNA as substrate preincubated for 1 hr followed by substrate addition by fluorescence based assay
[15] = target: T1, Alpha-ketoglutarate-dependent dioxygenase FTO; experiment: Inhibition of FTO (unknown origin) demethylation activity
[16] = target: T4, Alpha-ketoglutarate-dependent dioxygenase alkB homolog 3; experiment: Inhibition of ALKBH3 (unknown origin) using 3-methyl cytosine oligo DNA as substrate incubated for 1 hr by SYBR green dye based RT-PCR analysis
[17] = Oral bioavailability in rat; format: ADME, organism-based; conditions: in vivo

SMILES: O=C1OC2(c3ccc(O)cc3Oc3cc(O)ccc32)c2ccccc21 [FLUORESCEIN]
pIC50 [1]: 5.49 | pIC50 (RNA demethylase ALKBH5 [2]): < 4.00

SMILES: Cc1ccc(Cl)c(Nc2ccccc2C(=O)O)c1Cl [MECLOFENAMIC ACID]
pIC50 [3]: < 4.00 | pIC50 [4]: 5.10 | pIC50 (RNA demethylase ALKBH5 [5]): < 4.00 | pIC50 [6]: < 4.00

SMILES: O=C(O)c1cc(O)c2c(c1)C(=O)c1cccc(O)c1C2=O [RHEIN]
pIC50 [9]: 5.28 | pIC50 [10]: 4.90 | pIC50 [11]: 5.04

SMILES: O=C1c2ccc(-c3ccccc3)cc2C(NC2CCCCC2)C1Cl (configuration not stated)
inhibition [13]: 0% | pIC50 [14]: 4.71

More lines, now with the values ahead:

pIC50 [7]: 4.99 | pIC50 (RNA demethylase ALKBH5 [8]): 5.54
SMILES: O=C(O)c1ccc(O)c2ncccc12

pIC50 [12]: 4.41
SMILES: COc1cc2c(cc1Cl)C(C)(C)CC(C)(c1cc(Cl)c(O)cc1O)O2 (configuration not stated)

pIC50 [15]: 5.46
SMILES: CCN(CC)C(=O)/C(C#N)=C/c1cc(O)c(O)c([N+](=O)[O-])c1 [ENTACAPONE]

pIC50 [16]: 5.54
SMILES: Cc1nn(-c2nc3cc(F)ccc3[nH]2)c(O)c1-c1ccccc1

bioavailability [17]: 7.2%
SMILES: Cc1ccc2[nH]c(-n3nc(C)cc3O)nc2c1
